Test results taken from patent publication US11000033B2, “Ketone or oxime compound, and herbicide” (NISSAN CHEMICAL CORPORATION, priority 2014, dated 2021).

How the values were obtained:
Type in all cases: in vivo
[1] = system: Lolium multiflorum Lam.; experiment: Test Example 5: herbicidal effect by foliage application, plastic box (symbol K); settings: 320 g/ha, 3 weeks after application
Summary of the method: (§1)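 Sowing in sterilized diluvial soil, 14 days' greenhouse growth at 25° C. to 30° C., then uniform small-sprayer foliar application of aqueous emulsion dilution; plants scored three weeks afterwards.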

[2] = system: Echinochloa crus-galli var. crus-galli; experiment: Test Example 5: herbicidal effect by foliage application, plastic box (symbol H); settings: 320 g/ha, 3 weeks after application
Summary of the method: as §1

[3] = system: beet; experiment: Test Example 4: effect on crop by soil treatment (symbol f); settings: application herbicide amount 320 g/ha
Summary of the method: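 Steps: fill box with sterilized diluvial soil; sow seed spot-like; cover with ~1.5 cm soil; grow in greenhouse (25° C. to 30° C.).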

[4] = system: directly sowed rice plant; experiment: Test Example 3: effect on crop by foliage application, Wagner pot (symbol b); settings: application herbicide amount 320 g/ha
Summary of the method: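 Steps: fill a 1/10000-are Wagner pot with alluvial soil; add water and mix to submerge at 0.1–0.5 cm depth; sow rice plus Echinochloa crus-galli var. crus-galli, Leptochloa chinensis and Cyperus difformis; grow in a 25–30 °C greenhouse.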

[5] = system: Scirpus juncoides; experiment: Test Example 2: herbicidal activity, application during weed generation in submerged conditions (symbol B); settings: Table 23; application herbicide amount 320 g/ha; grade 0-5 by criteria of Test Example 1
Summary of the method: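 Weeds emerging under flooded conditions were treated with compound formulated as an emulsion and diluted with water to the intended herbicide amount, poured onto the surface of 4 cm standing water. Seeds had been co-sown in alluvial soil; plants grew at 25° C. to 30° C. and were assessed after 3 weeks.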

[6] = system: soybean; experiment: Test Example 5: effect on crop by foliage application, plastic box (symbol d); settings: 320 g/ha, 3 weeks after application
Summary of the method: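 Crop seed is sown alongside grass and broadleaf weed species in spots in sterilized diluvial soil, then covered to a depth of about 1.5 cm. Plants grow in a greenhouse kept at 25° C. to 30° C.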

[7] = system: Abutilon theophrasti; experiment: Test Example 4: herbicidal effect by soil treatment (symbol M); settings: application herbicide amount 320 g/ha
Summary of the method: (§2)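 Seeds were sown in sterilized diluvial soil, covered with about 1.5 cm of soil, and the soil surface was sprayed with a water-diluted emulsion of the compound at a predetermined rate. Plants grew in a greenhouse at 25° C. to 30° C.; effects were scored visually 3 weeks after application.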

[8] = system: Stellaria media; experiment: Test Example 4: herbicidal effect by soil treatment (symbol P); settings: application herbicide amount 320 g/ha
Summary of the method: as §2

[9] = system: Monochoria vaginalis; experiment: Test Example 1: herbicidal activity, application before weed generation in submerged conditions (symbol C); settings: application herbicide amount 320 g/ha
Summary of the method: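 0–5 visual score, 3 wk post-application. Submerged pots, alluvial soil, water 4 cm; seeds sown mixed, rice at 2.5 leaves transplanted. Emulsion diluted to predetermined dose, applied to water surface at sowing. 25–30 °C greenhouse.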

Row | SMILES | K: Lolium multiflorum Lam., herbicidal effect (criteria of Test Example 1) [1] | H: Echinochloa crus-galli var. crus-galli, herbicidal effect (criteria of Test Example 1) [2] | f: beet, effect on crop grade [3] | effect on crop b (directly sowed rice plant), grade 0-5 [4] | Herbicidal effect grade, B: Scirpus juncoides [5] | d: soybean, effect on crop (criteria of Test Example 1) [6] | M: Abutilon theophrasti, herbicidal effect grade [7] | P: Stellaria media, herbicidal effect grade [8] | Herbicidal effect grade, C: Monochoria vaginalis [9] | Effect on crop grade, f: beet [3] | Herbicidal effect grade, M: Abutilon theophrasti [7] | Herbicidal effect grade, P: Stellaria media [8]
1 | CCc1cc(-c2ccc(Cl)cc2)cc(C)c1C1=C(O)CC(CC(C)=NOC)C1=O (stereo not drawn) [6-066] | 5 (Herbicidal ratio of 90% or more (almost completely withered)) | 5 (Herbicidal ratio of 90% or more (almost completely withered)) | 0 (Herbicidal ratio of 5% or lower (almost no effect)) | 5 (Herbicidal ratio of 90% or more (almost completely withered)) | 0 (Herbicidal ratio of 5% or lower (almost no effect)) | 3 (Herbicidal ratio of 40% or higher and lower than 70%) | 0 (Herbicidal ratio of 5% or lower (almost no effect)) | 0 (Herbicidal ratio of 5% or lower (almost no effect)) | 2 (Herbicidal ratio of 20% or higher and lower than 40%) | – | – | –
2 | CON=C(C)CC1CC(O)=C(c2c(C)cc(C(C)=NOC)cc2C)C1=O (stereo not drawn) [6-065] | 5 (Herbicidal ratio of 90% or more (almost completely withered)) | 5 (Herbicidal ratio of 90% or more (almost completely withered)) | 2 (Herbicidal ratio of 20% or higher and lower than 40%) | 5 (Herbicidal ratio of 90% or more (almost completely withered)) | 1 (Herbicidal ratio of 5% or higher and lower than 20%) | 1 (Herbicidal ratio of 5% or higher and lower than 20%) | 0 (Herbicidal ratio of 5% or lower (almost no effect)) | 4 (Herbicidal ratio of 70% or higher and lower than 90%) | 3 (Herbicidal ratio of 40% or higher and lower than 70%) | – | – | –
3 | CON=C(C)CC1CC(O)=C(c2c(C)cccc2C)C1=O (stereo not drawn) [6-112] | 5 (Herbicidal ratio of 90% or more (almost completely withered)) | 5 (Herbicidal ratio of 90% or more (almost completely withered)) | – | 5 (Herbicidal ratio of 90% or more (almost completely withered)) | 0 (Herbicidal ratio of 5% or lower (almost no effect)) | 3 (Herbicidal ratio of 40% or higher and lower than 70%) | – | – | 0 (Herbicidal ratio of 5% or lower (almost no effect)) | 0 (Herbicidal ratio of 5% or lower (almost no effect)) | 1 (Herbicidal ratio of 5% or higher and lower than 20%) | 0 (Herbicidal ratio of 5% or lower (almost no effect))
4 | CON=C(C)CC1CC(OC(=O)N2CCOCC2)=C(c2c(C)cc(-c3ccc(F)c(Cl)c3)cc2C)C1=O (stereo not drawn) [6-093] | 5 (Herbicidal ratio of 90% or more (almost completely withered)) | 5 (Herbicidal ratio of 90% or more (almost completely withered)) | – | 5 (Herbicidal ratio of 90% or more (almost completely withered)) | 3 (Herbicidal ratio of 40% or higher and lower than 70%) | 2 (Herbicidal ratio of 20% or higher and lower than 40%) | – | – | 4 (Herbicidal ratio of 70% or higher and lower than 90%) | 0 (Herbicidal ratio of 5% or lower (almost no effect)) | 0 (Herbicidal ratio of 5% or lower (almost no effect)) | 5 (Herbicidal ratio of 90% or more (almost completely withered))
5 | CON=C(C)CC1CC(OC(=O)COc2ccccc2)=C(c2c(C)cc(-c3ccc(Cl)cc3)cc2C)C1=O (mixture of isomers) [6-061] | 5 (Herbicidal ratio of 90% or more (almost completely withered)) | 5 (Herbicidal ratio of 90% or more (almost completely withered)) | 0 (Herbicidal ratio of 5% or lower (almost no effect)) | 5 (Herbicidal ratio of 90% or more (almost completely withered)) | 4 (Herbicidal ratio of 70% or higher and lower than 90%) | 3 (Herbicidal ratio of 40% or higher and lower than 70%) | 1 (Herbicidal ratio of 5% or higher and lower than 20%) | 3 (Herbicidal ratio of 40% or higher and lower than 70%) | 1 (Herbicidal ratio of 5% or higher and lower than 20%) | – | – | –
6 | CON=C(C)CC1CC(O)=C(c2c(OC)cc(C)cc2OC)C1=O (stereo not drawn) [6-103] | 5 (Herbicidal ratio of 90% or more (almost completely withered)) | 5 (Herbicidal ratio of 90% or more (almost completely withered)) | – | 5 (Herbicidal ratio of 90% or more (almost completely withered)) | 0 (Herbicidal ratio of 5% or lower (almost no effect)) | 0 (Herbicidal ratio of 5% or lower (almost no effect)) | – | – | 0 (Herbicidal ratio of 5% or lower (almost no effect)) | 0 (Herbicidal ratio of 5% or lower (almost no effect)) | 0 (Herbicidal ratio of 5% or lower (almost no effect)) | 0 (Herbicidal ratio of 5% or lower (almost no effect))
7 | CCc1cc(-c2ccc(Cl)cc2)cc(C)c1C1=C(OC(=O)N2CCOCC2)CC(CC(C)=NOC)C1=O (mixture of isomers) [6-064] | 5 (Herbicidal ratio of 90% or more (almost completely withered)) | 5 (Herbicidal ratio of 90% or more (almost completely withered)) | 0 (Herbicidal ratio of 5% or lower (almost no effect)) | 4 (Herbicidal ratio of 70% or higher and lower than 90%) | 0 (Herbicidal ratio of 5% or lower (almost no effect)) | 0 (Herbicidal ratio of 5% or lower (almost no effect)) | 0 (Herbicidal ratio of 5% or lower (almost no effect)) | 0 (Herbicidal ratio of 5% or lower (almost no effect)) | 0 (Herbicidal ratio of 5% or lower (almost no effect)) | – | – | –
8 | COc1cc(C)c(C2=C(O)CC(CC(C)=O)C2=O)c(C)c1 (stereo not drawn) [7-020] | 4 (Herbicidal ratio of 70% or higher and lower than 90%) | 4 (Herbicidal ratio of 70% or higher and lower than 90%) | – | 4 (Herbicidal ratio of 70% or higher and lower than 90%) | 0 (Herbicidal ratio of 5% or lower (almost no effect)) | 0 (Herbicidal ratio of 5% or lower (almost no effect)) | – | – | 0 (Herbicidal ratio of 5% or lower (almost no effect)) | 0 (Herbicidal ratio of 5% or lower (almost no effect)) | 0 (Herbicidal ratio of 5% or lower (almost no effect)) | 0 (Herbicidal ratio of 5% or lower (almost no effect))
